Consider 31 compounds from US6310093A (priority 1998, dated 2001).

The target in data set [1] is T1, glutaminase (brain membranes) (Rattus norvegicus, UniProt P13264).
T1 construct: Membranes are prepared by homogenization of brain tissue in 330 mM sucrose; from tissue; host or cells: rat brain, crude membranes (17000 G pellet)
T1 sequence (P13264 73-674 limits assumed): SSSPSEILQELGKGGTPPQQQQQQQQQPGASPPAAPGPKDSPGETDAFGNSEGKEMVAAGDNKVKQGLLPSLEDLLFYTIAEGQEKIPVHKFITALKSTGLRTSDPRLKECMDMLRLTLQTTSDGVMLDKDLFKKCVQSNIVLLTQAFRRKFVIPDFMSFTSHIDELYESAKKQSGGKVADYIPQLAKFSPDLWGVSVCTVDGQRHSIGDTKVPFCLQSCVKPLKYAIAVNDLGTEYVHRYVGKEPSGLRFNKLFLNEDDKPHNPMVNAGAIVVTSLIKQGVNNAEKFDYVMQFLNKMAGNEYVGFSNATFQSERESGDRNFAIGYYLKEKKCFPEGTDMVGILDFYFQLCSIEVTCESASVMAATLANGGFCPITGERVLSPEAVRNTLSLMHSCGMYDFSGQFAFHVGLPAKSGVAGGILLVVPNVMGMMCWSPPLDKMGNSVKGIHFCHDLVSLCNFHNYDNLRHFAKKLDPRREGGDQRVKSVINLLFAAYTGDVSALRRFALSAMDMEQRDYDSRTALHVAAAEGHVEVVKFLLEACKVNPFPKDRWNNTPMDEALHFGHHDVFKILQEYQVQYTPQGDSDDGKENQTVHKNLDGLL
The data set can be described thus: biochemical. Also noted: Glutaminase Activity: unit not given here. The note with it: for Glutaminase Activity: brain membranes.

Data set [2] has as its system pure neuronal cultures (cortical neurons) exposed to glutamine.
Data set [3] has as its system neuronal cells in culture.
The test system of another data set is glutaminase. The following applies: cited from earlier work.
The target in data set [4] is T2, glutaminase in damaged neurons (Mus musculus, UniProt D3Z7P3).
T2 sequence (D3Z7P3 73-674 limits assumed): T1 sequence (P13264 73-674 limits assumed) with V64I, E590G

For data set [5] the following is noted: Huber; cited from earlier work.
The mark [6] stands for this setting: read-out: glutaminase activity, phosphate-containing compounds.

Where a chain is given by its changes, count along the chain named. Values joined by “and” are separate entries in the source; they are usually repeats but may differ in a detail not shown here. Equal values may be shown once. “Also recorded” adds a separate entry of the source. Read-outs that look alike come from different tables or passages of the source. Non-standard residues stand in square brackets, D forms with d. Residues, ends and D or L forms follow the SMILES beside them. pGlu = O=C1CC[C@@H](C(=O)O)N1

With `CCCCCCCC([N+](=O)[O-])[N+](=O)[O-]` [1,1-dinitrooctane], the “dependence of glutaminase inhibition on phosphate level and concentration (in words)” value in data set [1] is reported as “inhibition was reduced in the presence of high phosphate levels; the effect was particularly evident; also recorded: A biphasic effect”. Besides, the “Glutaminase Activity” value in data set [1] (30 µM) was 96 ± 3. Besides, the “Glutaminase Activity” value in data set [1] (100 µM) worked out at 96 ± 4. In data set [1] (300 µM), the “Glutaminase Activity” value was 51 ± 4 and 88 ± 17. Further, the “Glutaminase Activity” value in data set [1] (3000 µM) is reported as 64 ± 43. In data set [1] (read-out: Glutaminase Activity), the activity at 30 µM stood at 89 ± 6%, the activity at 100 µM was found to be 77 ± 11% and the activity at 3000 µM is 79 ± 27%. The “neuroprotection (in words)” value in data set [2] is “neuroprotective in cultures of pure (intact) neurons”. Further, in data set [2] (pure neuronal cultures), the “lowering of LDH level” value is given as 30-40% and the “lowering of glutamate level” value was 30-40%.
For the compound `N[C@@H](CC(=O)CCl)C(=O)O` [Chloroketone, L-2-amino-4-oxo-5-chloropentanoic acid], in data set [3], the “LDH release from neuronal cells (in words)” value is “resulted in release of lactate dehydrogenase from the cells, indicating cellular toxicity and death”. The “glutaminase inhibition (literature, in words)” value in the data set on glutaminase was “only weak (mM) inhibitors”.
On to `N[C@@H](CCC(=O)O)C(=O)NCC(=O)O` [Glu--Gly] (H-Glu-Gly-OH), for which, in data set [1] (read-out: Glutaminase Activity), the activity at 3300 µM amounted to 94% and the activity at 9000 µM turned out to be 95%.
The corresponding values for `NCCCC[C@H](NC(=O)[C@@H](N)CCC(=O)O)C(=O)O` [Glu--Lys] (H-Glu-Lys-OH) are 96% and 93%.
The corresponding values for `C[C@@H](O)[C@H](NC(=O)[C@@H](N)CCC(=O)O)C(=O)O` [Glu--Thr] (H-Glu-Thr-OH) are 124% and 123%.
The corresponding values for `CC(C)[C@H](NC(=O)[C@@H](N)CCC(=O)O)C(=O)O` [Glu--Val] (H-Glu-Val-OH) are 122% and 116%.
`NCC(=O)N[C@@H](CCC(=O)O)C(=O)O` [Gly--Glu] (H-Gly-Glu-OH): in data set [1] (read-out: Glutaminase Activity), the activity at 3300 µM worked out at 94% and the activity at 9000 µM worked out at 102%.
The corresponding values for `NCC(=O)NCC(=O)N[C@@H](CCC(=O)O)C(=O)O` [Gly--Gly--Glu] (H-Gly-Gly-Glu-OH) are 101% and 87%.
With `NCC(=O)N[C@H](CCC(=O)O)C(=O)O` [Gly-D-Glu] (H-Gly-[dE]-OH), in data set [1] (read-out: Glutaminase Activity), the activity at 3300 µM stood at 109% and the activity at 9000 µM was found to be 90%.
For the compound `CCOC(=O)CC[C@H](N)C(=O)O` [L-glutamate-5-ethyl ester], in data set [1] (read-out: Glutaminase Activity), the activity at 3300 µM stood at 98% and the activity at 9000 µM amounted to 92%.
The corresponding values for `COC(=O)CC[C@H](N)C(=O)O` [L-glutamate-5-methyl ester] are 105 ± 7% and 113%.
The corresponding values for `NC(=O)[C@@H](N)CCC(=O)O` [L-glutamide] are 99% and 96%.
On the same counts, the results for `CSCC[C@H](N)C(=O)N[C@@H](CCC(=O)O)C(=O)O` [Met--Glu] (H-Met-Glu-OH) are 111% and 98%.
For `CC(=O)N[C@@H](CC(=O)O)C(=O)N[C@@H](CCC(=O)O)C(=O)O` [N-acetyl Asp--Glu] (Ac-Asp-Glu-OH), the “glutaminase inhibition (in words)” value in data set [1] was “moderate inhibition”. Besides, in data set [1] (read-out: Glutaminase Activity), the activity at 3300 µM was found to be 83%.
Regarding `N=CN[C@@H](CCC(=O)O)C(=O)O` [N-formamino-Glu], in data set [1] (read-out: Glutaminase Activity), the activity at 3300 µM was 89% and the activity at 9000 µM was determined as 127%.
On the same counts, the results for `N[C@@H](CO)C(=O)N[C@@H](CCC(=O)O)C(=O)O` [Ser--Glu] (H-Ser-Glu-OH) are 104% and 88%.
As to `N[C@@H](Cc1c[nH]c2ccccc12)C(=O)N[C@@H](CCC(=O)O)C(=O)O` [Trp--Glu] (H-Trp-Glu-OH), in data set [1] (read-out: Glutaminase Activity), the activity at 3300 µM is 99% and the activity at 9000 µM stood at 86%.
On the same counts, the results for `N[C@@H](Cc1ccc(O)cc1)C(=O)N[C@@H](CCC(=O)O)C(=O)O` [Tyr--Glu] (H-Tyr-Glu-OH) are 110% and 118%.
As for `CC(C)[C@H](N)C(=O)N[C@@H](CCC(=O)O)C(=O)O` [Val--Glu] (H-Val-Glu-OH), in data set [1] (read-out: Glutaminase Activity), the activity at 3300 µM was 114% and the activity at 9000 µM is 99%.
As for `N[C@H](C(=O)O)[C@@H]1CC(Cl)=NO1` [acivicin], the “effect on glutamine hydrolysis by damaged neurons (in words)” value in data set [4] is “no effect on glutamine hydrolysis”. Moreover, the “glutaminase inhibition (literature, in words)” value with glutaminase is listed as “do not inhibit glutaminase”. The “crossing of cell membranes (in words)” value in data set [5] is “readily cross cell membranes”.
For `[N-]=[N+]=CC(=O)OC[C@H](N)C(=O)O` [azaserine], in the data set with glutaminase, the “glutaminase inhibition (literature, in words)” value is recorded as “do not inhibit glutaminase”.
With `O=C(O)CC[C@H](NC(=O)OCc1ccccc1)C(=O)O` [carbobenzoxy-Glu--OH], in data set [1], the “glutaminase inhibition (in words)” value is reported as “moderate inhibition”. In data set [1] (read-out: Glutaminase Activity), the activity at 3300 µM is 65% and the activity at 9000 µM turned out to be 56%.
Regarding `NNC(=O)CCC(N)C(=O)O` (stereo not drawn) [glutamate-γ-hydrazide], the “effect on glutamine hydrolysis by damaged neurons (in words)” value in data set [4] is “no effect on glutamine hydrolysis”.
As for `O=C(O)CCCC(=O)O` [glutaric acid], in data set [1] (read-out: Glutaminase Activity), the activity at 3300 µM was determined as 89% and the activity at 9000 µM stood at 75%.
Take `NCC(=O)NC(CC(F)C(=O)O)C(=O)O` (stereo not drawn) [glycyl-4-fluoroglutamate, Glycyl-4-fluoroglutamate]: in data set [1] (read-out: Glutaminase Activity), the activity at 330 µM was 94%, the activity at 900 µM turned out to be 80%, the activity at 3300 µM was 55% and the activity at 9000 µM is 30%.
As to `Cc1ncc(COP(=O)(O)O)c(C=O)c1O` [pyridoxal 5-phosphate], in data set [1] (setting [6]), the activity at 3000 µM lay within 75 to 90% and the activity at 9000 µM lay within 70 to 85%.
As to `C[C@H](NC(=O)[C@@H]1CCC(=O)N1)C(=O)N[C@@H](CCC(=O)O)C(=O)O` [pyro-Glu--Ala--Glu] ([pGlu]-Ala-Glu-OH), in data set [1] (read-out: Glutaminase Activity), the activity at 3300 µM is 95% and the activity at 9000 µM amounted to 76%.
Consider `CC(C)OP(=O)(CCP(=O)(OC(C)C)OC(C)C)OC(C)C` [tetraisopropyl ethylene diphosphonate], for which, in data set [1] (setting [6]), the activity at 3000 µM was in the range of 75 to 90% and the activity at 9000 µM lay within 70 to 85%.
With `NC(CC(=O)O)CC(=O)O` [β-glutamic acid], the “Glutaminase Activity” value in data set [1] (9000 µM) is 73 and 83 and 94. In data set [1] (read-out: Glutaminase Activity), the activity at 3300 µM was 84%.
For the compound `N[C@@H](CCC(=O)NCC(=O)O)C(=O)O` [γ-Glu--Gly], in data set [1] (read-out: Glutaminase Activity), the activity at 3300 µM turned out to be 90 ± 13%.
Take `NC(CC(C(=O)O)C(=O)O)C(=O)O` (stereo not drawn) [γ-carboxy glutamate]: in data set [1] (read-out: Glutaminase Activity), the activity at 3300 µM amounted to 100% and the activity at 9000 µM was 104%.
